Measured values as given in patent publication US8962641B2, “Pyrimidine-substituted pyrrolidine derivatives, pharmaceutical compositions and uses thereof” (Boehringer Ingelheim International GmbH, priority 2013, dated 2015).

molecular target: human ACC2 (Homo sapiens (Human), UniProt O00763); assay: ACC2 assay (spectrophotometric 384 well assay, NADH-linked kinetic method); assay type: biochemical; details: hACC2 construct lacking 128 N-terminal amino acids; coupled lactate dehydrogenase/pyruvate kinase reaction, 340 nm, 25° C.
Sequence (O00763 129-2458): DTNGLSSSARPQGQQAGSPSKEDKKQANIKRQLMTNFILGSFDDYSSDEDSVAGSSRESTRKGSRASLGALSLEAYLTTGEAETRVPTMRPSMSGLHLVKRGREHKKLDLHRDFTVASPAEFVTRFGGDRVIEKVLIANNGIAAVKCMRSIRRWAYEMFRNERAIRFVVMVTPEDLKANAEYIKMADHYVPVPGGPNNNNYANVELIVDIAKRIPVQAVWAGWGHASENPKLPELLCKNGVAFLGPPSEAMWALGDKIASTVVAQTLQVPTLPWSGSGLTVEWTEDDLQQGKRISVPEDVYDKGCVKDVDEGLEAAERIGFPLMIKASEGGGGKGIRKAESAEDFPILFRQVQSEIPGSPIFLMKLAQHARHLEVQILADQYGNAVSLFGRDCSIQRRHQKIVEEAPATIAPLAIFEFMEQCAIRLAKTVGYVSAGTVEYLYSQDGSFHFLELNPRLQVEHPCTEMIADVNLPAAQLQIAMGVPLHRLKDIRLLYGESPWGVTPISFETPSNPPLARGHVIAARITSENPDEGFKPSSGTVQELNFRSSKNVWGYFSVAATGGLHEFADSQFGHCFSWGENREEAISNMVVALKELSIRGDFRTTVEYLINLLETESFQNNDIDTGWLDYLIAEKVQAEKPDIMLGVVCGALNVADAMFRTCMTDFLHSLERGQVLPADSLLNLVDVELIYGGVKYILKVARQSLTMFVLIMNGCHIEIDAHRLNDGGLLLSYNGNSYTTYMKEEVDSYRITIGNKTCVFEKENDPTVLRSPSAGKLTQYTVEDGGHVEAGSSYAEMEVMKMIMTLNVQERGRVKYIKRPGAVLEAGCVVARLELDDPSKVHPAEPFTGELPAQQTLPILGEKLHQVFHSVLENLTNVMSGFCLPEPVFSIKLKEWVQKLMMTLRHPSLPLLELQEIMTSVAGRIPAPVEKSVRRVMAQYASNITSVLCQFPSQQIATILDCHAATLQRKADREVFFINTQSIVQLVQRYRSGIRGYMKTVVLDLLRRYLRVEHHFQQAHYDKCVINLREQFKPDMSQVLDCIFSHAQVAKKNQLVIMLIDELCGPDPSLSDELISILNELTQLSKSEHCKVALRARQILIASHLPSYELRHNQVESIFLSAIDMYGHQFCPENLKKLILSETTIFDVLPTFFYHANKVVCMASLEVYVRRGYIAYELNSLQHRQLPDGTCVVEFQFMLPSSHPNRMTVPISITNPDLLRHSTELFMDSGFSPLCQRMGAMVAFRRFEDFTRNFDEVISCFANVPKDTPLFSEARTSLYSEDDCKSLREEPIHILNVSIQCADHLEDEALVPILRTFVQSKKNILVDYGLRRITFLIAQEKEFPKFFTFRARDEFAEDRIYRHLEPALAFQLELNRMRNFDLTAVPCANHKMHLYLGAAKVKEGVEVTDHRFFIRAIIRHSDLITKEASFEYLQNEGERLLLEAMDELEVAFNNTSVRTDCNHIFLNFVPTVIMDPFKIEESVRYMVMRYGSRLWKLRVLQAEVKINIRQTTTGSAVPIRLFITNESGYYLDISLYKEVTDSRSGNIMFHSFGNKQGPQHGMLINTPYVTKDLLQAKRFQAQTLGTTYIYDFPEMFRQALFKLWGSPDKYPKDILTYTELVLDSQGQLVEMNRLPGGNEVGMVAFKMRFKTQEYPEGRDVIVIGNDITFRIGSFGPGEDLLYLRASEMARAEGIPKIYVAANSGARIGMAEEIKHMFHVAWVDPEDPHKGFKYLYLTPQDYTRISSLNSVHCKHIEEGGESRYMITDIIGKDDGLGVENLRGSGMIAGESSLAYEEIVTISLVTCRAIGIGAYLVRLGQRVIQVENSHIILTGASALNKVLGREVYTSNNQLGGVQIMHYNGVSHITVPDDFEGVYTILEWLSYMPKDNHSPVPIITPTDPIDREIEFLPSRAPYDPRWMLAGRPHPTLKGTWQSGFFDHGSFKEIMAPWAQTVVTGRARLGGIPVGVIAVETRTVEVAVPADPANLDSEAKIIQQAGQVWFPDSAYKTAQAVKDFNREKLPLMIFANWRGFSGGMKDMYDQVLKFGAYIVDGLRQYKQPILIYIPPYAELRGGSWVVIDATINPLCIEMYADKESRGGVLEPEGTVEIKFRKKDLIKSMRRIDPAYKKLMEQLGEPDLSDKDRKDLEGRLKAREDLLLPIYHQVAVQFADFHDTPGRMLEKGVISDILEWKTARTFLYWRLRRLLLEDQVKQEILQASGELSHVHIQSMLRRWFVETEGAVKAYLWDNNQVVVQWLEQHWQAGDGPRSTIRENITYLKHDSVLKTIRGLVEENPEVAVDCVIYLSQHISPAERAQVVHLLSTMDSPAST
Method in brief: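 Baculovirus/insect-cell human ACC2, anion-exchange purified; ADP formation coupled to pyruvate kinase/lactate dehydrogenase, NADH loss followed at 340 nm, 25° C, 15 min. Final 200 μM NADH and acetyl-CoA, 500 uM ATP; vehicle and no-acetyl-CoA wells set 100% and 0%.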

Point of comparison: COCCCN(C)c1nccc(N2CC[C@@H](Oc3ccc([C@H](C)NC(C)=O)cc3)C2)n1 [Example 8.242], IC50 459 nM. Against it:
- C[C@H](NC(=O)c1cncs1)c1ccc(O[C@@H]2CCN(c3ccnc(N(C)CCC#N)n3)C2)cc1 [Example 8.98] — 2.2-fold lower, 212 nM
- CCN(CC)c1ncnc(N2CC[C@@H](Oc3ccc([C@H](C)NC(C)=O)cc3)C2)c1F [Example 8.95] — 5.8-fold lower, 79 nM
- CC(=O)N[C@@H](C)c1ccc(O[C@@H]2CCN(c3nc(NCC4CC4)ncc3F)C2)cc1 [Example 8.303] — 1.5-fold lower, 301 nM
- CC(=O)N[C@@H](C)c1ccc(O[C@@H]2CCN(c3ncnc(N(C)CCC(F)(F)F)c3F)C2)cc1 [Example 8.159] — 3-fold lower, 151 nM
- CC(=O)N[C@@H](C)c1ccc(O[C@@H]2CCN(c3nc(N4CCCOCC4)ncc3F)C2)cc1 [Example 8.216] — 3.7-fold lower, 125 nM
- CC(=O)N[C@@H](C)c1ccc(O[C@@H]2CCN(c3nc(NC4(C)CCCC4)ncc3F)C2)cc1 [Example 8.36] — within 1.5-fold, 539 nM
- CC(=O)N[C@@H](C)c1ccc(O[C@@H]2CCN(c3nc(N4CCCC4)ncc3Br)C2)cc1 [Example 8.59] — within 1.5-fold, 425 nM
- C[C@H](NC(=O)N(C)C)c1ccc(OC2CCN(c3ccnc(N4CCOCC4)n3)C2)cc1 (some centres unmarked) [Example 3.2] — 2-fold lower, 227 nM
- CC(=O)N[C@@H](C)c1ccc(O[C@@H]2CCN(c3ccnc(N4CC(F)(F)C4)n3)C2)cc1 [Example 8.45] — 2.4-fold lower, 192 nM
- CC(=O)N[C@@H](C)c1ccc(O[C@@H]2CCN(c3nc(N4CCCC4C)ncc3F)C2)cc1 (some centres unmarked) [Example 8.254] — 7.7-fold lower, 60 nM
- CCCNc1ncc(F)c(N2CC[C@@H](Oc3ccc([C@H](C)NC(C)=O)cc3)C2)n1 [Example 8.302] — 2.3-fold lower, 202 nM
- CC(=O)N[C@@H](C)c1ccc(O[C@@H]2CCN(c3ncc(OC(C)C)cn3)C2)cc1 [Example 6.6] — 1.8-fold higher, 830 nM
- CC(=O)N[C@@H](C)c1ccc(O[C@@H]2CCN(c3cc(OCC4CC4(F)F)ncn3)C2)cc1 (some centres unmarked) [Example 7.5] — 1.8-fold higher, 842 nM
- CC(=O)N[C@@H](C)c1ccc(O[C@@H]2CCN(c3nc(N(C)C4CC4)ncc3Cl)C2)cc1 [Example 8.145] — 4.9-fold lower, 93 nM
- CC(=O)N[C@@H](C)c1ccc(O[C@@H]2CCN(c3nc(N4CCCC(F)(F)C4)ncc3Cl)C2)cc1 [Example 8.189] — within 1.5-fold, 319 nM
- CC(=O)N[C@@H](C)c1ccc(O[C@@H]2CCN(c3ncnc(NCC4CC4)c3Cl)C2)cc1 [Example 8.309] — 11-fold lower, 42 nM
- CCCNc1ncnc(N2CC[C@@H](Oc3ccc([C@H](C)NC(=O)c4sc(NC(=O)CC)nc4C)cc3)C2)c1F [Example 8.318] — 1.5-fold higher, 703 nM
- CC(=O)N[C@@H](C)c1ccc(O[C@@H]2CCN(c3ncnc(NCC4(O)CCC4)c3Cl)C2)cc1 [Example 8.299] — 6.6-fold lower, 70 nM
- CC(=O)N[C@@H](C)c1ccc(O[C@@H]2CCN(c3ccnc(N4CC[C@H](F)C4)n3)C2)cc1 [Example 8.265] — within 1.5-fold, 379 nM
- CCOc1ncnc(N2CC[C@@H](Oc3ccc([C@H](C)NC(C)=O)cc3)C2)c1OC [Example 7.44] — 1.7-fold lower, 277 nM
- CC(=O)N[C@@H](C)c1ccc(O[C@@H]2CCN(c3ncnc(N4CCCC4C)c3F)C2)cc1 (some centres unmarked) [Example 8.233] — 3-fold lower, 153 nM
- CC(=O)N[C@@H](C)c1ccc(O[C@@H]2CCN(c3nc(N(C)C4CCCOC4)ncc3F)C2)cc1 (some centres unmarked) [Example 8.166] — 4.4-fold lower, 105 nM
- CC(=O)N[C@@H](C)c1ccc(O[C@@H]2CCN(c3cnc(NC4CCC4)nc3)C2)cc1 [Example 1.1, N—((S)-1-(4-((R)-1-(2-(cyclobutylamino)pyrimidin-5-yl)pyrrolidin-3-yloxy)phenyl)ethyl)acetamide] — within 1.5-fold, 489 nM
- CC(=O)N[C@@H](C)c1ccc(O[C@@H]2CCN(c3cc(OCC4CC4)ncn3)C2)cc1 [Example 7.3] — within 1.5-fold, 375 nM
- CC(=O)N[C@@H](C)c1ccc(O[C@@H]2CCN(c3ccnc(N(C)CC4CC4)n3)C2)cc1 [Example 8.3] — 3.7-fold lower, 125 nM
- CC(=O)N[C@@H](C)c1ccc(O[C@@H]2CCN(c3ncnc(N(C)CC(F)F)c3F)C2)cc1 [Example 8.132] — 2.2-fold lower, 206 nM
- CC(=O)N[C@@H](C)c1ccc(O[C@@H]2CCN(c3nc(N4C[C@@H]5C[C@H]4CO5)ncc3F)C2)cc1 [Example 8.155] — within 1.5-fold, 613 nM
- CCN(C)c1nccc(N2CCC(Oc3ccc([C@H](C)NC(=O)c4cnoc4C)cc3)C2)n1 (some centres unmarked) [Example 2.18] — 3.5-fold lower, 130 nM
- CC(=O)N[C@@H](C)c1ccc(O[C@@H]2CCN(c3ccnc(N(C)CCC#N)n3)C2)cc1 [Example 8.37] — within 1.5-fold, 349 nM
- CC(=O)N[C@@H](C)c1ccc(O[C@@H]2CCN(c3ccnc(N(C)CC(F)(F)F)n3)C2)cc1 [Example 8.46] — 5.2-fold lower, 89 nM
- CC(=O)N[C@@H](C)c1ccc(O[C@@H]2CCN(c3nc(N(C)CC4CC4)ncc3Cl)C2)cc1 [Example 8.126] — 7.9-fold lower, 58 nM
- COCC(=O)N[C@@H]1CC[C@H](C(=O)N[C@@H](C)c2ccc(O[C@@H]3CCN(c4ncnc(OCC5CC5)c4F)C3)cc2)C1 [Example 10.2] — 2.6-fold lower, 174 nM
- CC(=O)N[C@@H](C)c1ccc(O[C@@H]2CCN(c3ncnc(C4CCC4)c3F)C2)cc1 [Example 9.3] — within 1.5-fold, 342 nM
- Cc1nocc1C(=O)N[C@@H](C)c1ccc(OC2CCN(c3ccnc(N4CCOCC4)n3)C2)cc1 (some centres unmarked) [Example 2.4] — 2.2-fold lower, 208 nM
- C[C@H](NC(=O)c1cncs1)c1ccc(O[C@@H]2CCN(c3ncc(OCC4CC4(F)F)cn3)C2)cc1 (some centres unmarked) [Example 6.15] — 2.1-fold lower, 220 nM
- CCNc1ncnc(N2CC[C@@H](Oc3ccc([C@H](C)NC(C)=O)cc3)C2)c1F [Example 8.118] — 5.4-fold higher, 2460 nM
- COC(=O)N[C@@H](C)c1ccc(OC2CCN(c3ccnc(N4CCOCC4)n3)C2)cc1 (some centres unmarked) [Example 4.2] — 1.9-fold lower, 244 nM
- CC(=O)N[C@@H](C)c1ccc(O[C@@H]2CCN(c3ncnc(N(C)C4CC4)c3F)C2)cc1 [Example 8.133] — 1.5-fold lower, 299 nM
- CC(=O)N[C@@H](C)c1ccc(O[C@@H]2CCN(c3ncnc(N4CCCCC4)c3F)C2)cc1 [Example 8.138] — 4.4-fold lower, 105 nM
- COc1c(OCC2CC2(F)F)ncnc1N1CC[C@@H](Oc2ccc([C@H](C)NC(C)=O)cc2)C1 (some centres unmarked) [Example 7.56] — 6.1-fold lower, 75 nM
- CCCNc1ncnc(N2CC[C@@H](Oc3ccc([C@H](C)NC(C)=O)cc3)C2)c1F [Example 8.120] — within 1.5-fold, 413 nM
- CC(=O)N[C@@H](C)c1ccc(O[C@@H]2CCN(c3ncnc(N(C)C)c3F)C2)cc1 [Example 8.93] — within 1.5-fold, 440 nM
- CC(=O)N[C@@H](C)c1ccc(O[C@@H]2CCN(c3ncnc(N4CCCC4(C)C)c3F)C2)cc1 [Example 8.250] — within 1.5-fold, 358 nM
- CCNC(=O)N[C@@H](C)c1ccc(OC2CCN(c3ncnc(OCC4CC4)c3F)C2)cc1 (some centres unmarked) [Example 3.14] — 3.8-fold lower, 120 nM
- COc1c(OC2CCCC2)ncnc1N1CC[C@@H](Oc2ccc([C@H](C)NC(C)=O)cc2)C1 [Example 7.55] — 6.7-fold lower, 69 nM
- CC(=O)N[C@@H](C)c1ccc(O[C@@H]2CCN(c3ncnc(N4CCC(C)(C)C4)c3F)C2)cc1 [Example 8.199] — 5.4-fold lower, 85 nM
- CC(=O)N[C@@H](C)c1ccc(O[C@@H]2CCN(c3ccnc(N4CCCC4(C)C)n3)C2)cc1 [Example 8.243] — within 1.5-fold, 559 nM
- CC(=O)N[C@@H](C)c1ccc(O[C@@H]2CCN(c3nc(N(C)C(C)C)ncc3Cl)C2)cc1 [Example 8.141] — 3.1-fold lower, 148 nM
- CC(=O)N[C@@H](C)c1ccc(O[C@@H]2CCN(c3ncnc(C4CCCC4)c3F)C2)cc1 [Example 9.4] — within 1.5-fold, 464 nM
- CCCN(C)c1cc(N2CC[C@@H](Oc3ccc([C@H](C)NC(C)=O)cc3)C2)ncn1 [Example 8.7] — 1.9-fold higher, 865 nM
- CC(=O)N[C@@H](C)c1ccc(O[C@@H]2CCN(c3nc(N4CCCC4)ncc3F)C2)cc1 [Example 8.12] — 6.9-fold lower, 67 nM
- CC(=O)N[C@@H](C)c1ccc(O[C@@H]2CCN(c3nc(N(C)C4CCCC4)ncc3Cl)C2)cc1 [Example 8.124] — 4.1-fold lower, 111 nM
- CCN(C)c1ncnc(N2CC[C@@H](Oc3ccc([C@H](C)NC(C)=O)cc3)C2)c1C [Example 8.101] — within 1.5-fold, 376 nM
- CCC(=O)Nc1nc(C)c(C(=O)N[C@@H](C)c2ccc(O[C@@H]3CCN(c4ncnc(NCC(F)F)c4OC)C3)cc2)s1 [Example 8.321] — 1.8-fold higher, 830 nM
- CC(=O)N[C@@H](C)c1ccc(O[C@@H]2CCN(c3ncc(OCC4CC4(F)F)cn3)C2)cc1 (some centres unmarked) [Example 6.8] — 2.8-fold lower, 163 nM
- CC(=O)N[C@@H](C)c1ccc(O[C@@H]2CCN(c3ncnc(OCC(C)C)c3F)C2)cc1 [Example 7.28] — 6.7-fold lower, 69 nM
- CC(=O)N[C@@H](C)c1ccc(O[C@@H]2CCN(c3nc(N4CC[C@H](F)C4)ncc3F)C2)cc1 [Example 8.184] — 2.1-fold lower, 220 nM
- COC[C@@H]1CCCN1c1ncc(F)c(N2CC[C@@H](Oc3ccc([C@H](C)NC(C)=O)cc3)C2)n1 [Example 8.262] — 3.6-fold lower, 129 nM
- CC(=O)N[C@@H](C)c1ccc(O[C@@H]2CCN(c3ncnc(OCC4CC4(F)F)c3F)C2)cc1 (some centres unmarked) [Example 7.34] — 7.3-fold lower, 63 nM
- CC(=O)N[C@@H](C)c1ccc(O[C@@H]2CCN(c3nc(N(C)CC(C)(C)O)ncc3Cl)C2)cc1 [Example 8.266] — 2.2-fold higher, 995 nM
- CC(=O)N[C@@H](C)c1ccc(O[C@@H]2CCN(c3ncnc(N4CCOCC4)c3F)C2)cc1 [Example 8.143] — within 1.5-fold, 429 nM
- C[C@H](NC(=O)N1CCOCC1)c1ccc(OC2CCN(c3ccnc(N4CCOCC4)n3)C2)cc1 (some centres unmarked) [Example 3.6] — within 1.5-fold, 605 nM
- CC(=O)N[C@@H](C)c1ccc(O[C@@H]2CCN(c3nc(N4CCC(C)(O)C4)ncc3Cl)C2)cc1 (some centres unmarked) [Example 8.256] — 1.5-fold lower, 303 nM
- CC(=O)N[C@@H](C)c1ccc(O[C@@H]2CCN(c3ncnc(OC4CCOCC4)c3Cl)C2)cc1 [Example 7.64] — 3.6-fold lower, 128 nM
- CCN(CC)c1ncc(F)c(N2CC[C@@H](Oc3ccc([C@H](C)NC(C)=O)cc3)C2)n1 [Example 8.26] — 6.7-fold lower, 69 nM
- CC(=O)N[C@@H](C)c1ccc(O[C@@H]2CCN(c3nc(N4CCC[C@H]4C)ncc3Cl)C2)cc1 [Example 8.285] — 5.2-fold lower, 89 nM
- CC(=O)N[C@@H](C)c1ccc(O[C@@H]2CCN(c3ncnc(OCC4CC4)c3F)C2)cc1 [Example 7.1, N—((S)-1-(4-((R)-1-(6-(cyclopropylmethoxy)-5-fluoropyrimidin-4-yl)pyrrolidin-3-yloxy)phenyl)ethyl)acetamide] — 13-fold lower, 35 nM
